The series can be described thus: activity coefficient (dimensionless); of the first substance listed, at infinite dilution; xn = mol fraction of the nth substance listed. Conditions: 101 kPa, Liquid, Chromatography, x1 = 0.

Each structure is given as a SMILES string. ± gives the expanded uncertainty stated by the source.

`C1=CCCC=C1` [1,3-cyclohexadiene] + CCCCCCCCCCCCCCCCCCC(CCCCCCCCCCCCCCCCCC)CCCCC(CCCCCCCCCCCCCCCCCC)CCCCCCCCCCCCCCCCCC: the activity coefficient is, setting by setting: (373.15 K) 0.251 ± 0.036; (388.15 K) 0.253 ± 0.036; (403.15 K) 0.255 ± 0.036; (418.15 K) 0.252 ± 0.036; (433.15 K) 0.252 ± 0.036.

On to `C1=CCC=CC1` [1,4-cyclohexadiene] + CCCCCCCCCCCCCCCCCCC(CCCCCCCCCCCCCCCCCC)CCCCC(CCCCCCCCCCCCCCCCCC)CCCCCCCCCCCCCCCCCC, for which the activity coefficient by setting is: (373.15 K) 0.242 ± 0.036; (388.15 K) 0.244 ± 0.036; (403.15 K) 0.242 ± 0.036; (418.15 K) 0.238 ± 0.036; (433.15 K) 0.238 ± 0.036.

Take `C=CCCCCCCCC` [1-decene] + CCCCCCCCCCCCCCCCCCC(CCCCCCCCCCCCCCCCCC)CCCCC(CCCCCCCCCCCCCCCCCC)CCCCCCCCCCCCCCCCCC: the activity coefficient (373.15 K) worked out at 0.411 ± 0.034; the activity coefficient (388.15 K) came out at 0.413 ± 0.034; the activity coefficient (403.15 K) was found to be 0.413 ± 0.034; the activity coefficient (418.15 K) is 0.416 ± 0.034; the activity coefficient (433.15 K) was 0.418 ± 0.034.

For `C#CCCCCCCCC` [1-decyne] + CCCCCCCCCCCCCCCCCCC(CCCCCCCCCCCCCCCCCC)CCCCC(CCCCCCCCCCCCCCCCCC)CCCCCCCCCCCCCCCCCC, the activity coefficient runs as follows: (373.15 K) 0.442 ± 0.033; (388.15 K) 0.446 ± 0.033; (403.15 K) 0.446 ± 0.033; (418.15 K) 0.446 ± 0.033; (433.15 K) 0.446 ± 0.033.

Regarding `C=CCCCCCCCCCC` [1-dodecene] + CCCCCCCCCCCCCCCCCCC(CCCCCCCCCCCCCCCCCC)CCCCC(CCCCCCCCCCCCCCCCCC)CCCCCCCCCCCCCCCCCC, the activity coefficient runs as follows: (373.15 K) 0.447 ± 0.033; (388.15 K) 0.449 ± 0.033; (403.15 K) 0.453 ± 0.033; (418.15 K) 0.453 ± 0.033; (433.15 K) 0.455 ± 0.033.

With `C=CCCCCC` [1-heptene] + CCCCCCCCCCCCCCCCCCC(CCCCCCCCCCCCCCCCCC)CCCCC(CCCCCCCCCCCCCCCCCC)CCCCCCCCCCCCCCCCCC, the activity coefficient is, setting by setting: (373.15 K) 0.354 ± 0.035; (388.15 K) 0.355 ± 0.035; (403.15 K) 0.356 ± 0.035; (418.15 K) 0.357 ± 0.035; (433.15 K) 0.359 ± 0.035.

On to `C#CCCCCC` [1-heptyne] + CCCCCCCCCCCCCCCCCCC(CCCCCCCCCCCCCCCCCC)CCCCC(CCCCCCCCCCCCCCCCCC)CCCCCCCCCCCCCCCCCC, for which the activity coefficient (373.15 K) worked out at 0.411 ± 0.034; the activity coefficient (388.15 K) stood at 0.407 ± 0.034; the activity coefficient (403.15 K) is 0.401 ± 0.034; the activity coefficient (418.15 K) stood at 0.399 ± 0.034; the activity coefficient (433.15 K) was 0.398 ± 0.034.

For the compound `C#CCCCC` [1-hexyne] + CCCCCCCCCCCCCCCCCCC(CCCCCCCCCCCCCCCCCC)CCCCC(CCCCCCCCCCCCCCCCCC)CCCCCCCCCCCCCCCCCC, the activity coefficient (373.15 K) is 0.39 ± 0.034; the activity coefficient (388.15 K) is 0.378 ± 0.034; the activity coefficient (403.15 K) is 0.37 ± 0.034; the activity coefficient (418.15 K) was determined as 0.364 ± 0.035; the activity coefficient (433.15 K) was determined as 0.36 ± 0.035.

For `C=CCCCCCCC` [1-nonene] + CCCCCCCCCCCCCCCCCCC(CCCCCCCCCCCCCCCCCC)CCCCC(CCCCCCCCCCCCCCCCCC)CCCCCCCCCCCCCCCCCC, the activity coefficient (373.15 K) was found to be 0.392 ± 0.034; the activity coefficient (388.15 K) came out at 0.394 ± 0.034; the activity coefficient (403.15 K) was found to be 0.395 ± 0.034; the activity coefficient (418.15 K) was 0.396 ± 0.034; the activity coefficient (433.15 K) was 0.398 ± 0.034.

For the compound `C#CCCCCCCC` [1-nonyne] + CCCCCCCCCCCCCCCCCCC(CCCCCCCCCCCCCCCCCC)CCCCC(CCCCCCCCCCCCCCCCCC)CCCCCCCCCCCCCCCCCC, the activity coefficient came out at 0.445 ± 0.033 (373.15 K); 0.443 ± 0.033 (388.15 K); 0.438 ± 0.033 (403.15 K); 0.431 ± 0.034 (418.15 K); 0.425 ± 0.034 (433.15 K).

As for `C#CCCCCCC` [1-octyne] + CCCCCCCCCCCCCCCCCCC(CCCCCCCCCCCCCCCCCC)CCCCC(CCCCCCCCCCCCCCCCCC)CCCCCCCCCCCCCCCCCC, the activity coefficient runs as follows: (373.15 K) 0.428 ± 0.034; (388.15 K) 0.424 ± 0.034; (403.15 K) 0.417 ± 0.034; (418.15 K) 0.412 ± 0.034; (433.15 K) 0.411 ± 0.034.

Regarding `C=CCCCCCCCCCCCC` [1-tetradecene] + CCCCCCCCCCCCCCCCCCC(CCCCCCCCCCCCCCCCCC)CCCCC(CCCCCCCCCCCCCCCCCC)CCCCCCCCCCCCCCCCCC, the activity coefficient is 0.475 ± 0.033 (373.15 K); 0.476 ± 0.033 (388.15 K); 0.475 ± 0.033 (403.15 K); 0.476 ± 0.033 (418.15 K); 0.475 ± 0.033 (433.15 K).

On to `C=CCCCCCCCCCCC` [1-tridecene] + CCCCCCCCCCCCCCCCCCC(CCCCCCCCCCCCCCCCCC)CCCCC(CCCCCCCCCCCCCCCCCC)CCCCCCCCCCCCCCCCCC, for which the activity coefficient came to 0.467 ± 0.033 (373.15 K); 0.466 ± 0.033 (388.15 K); 0.466 ± 0.033 (403.15 K); 0.467 ± 0.033 (418.15 K); 0.468 ± 0.033 (433.15 K).

Regarding `C=CCCCCCCCCC` [1-undecene] + CCCCCCCCCCCCCCCCCCC(CCCCCCCCCCCCCCCCCC)CCCCC(CCCCCCCCCCCCCCCCCC)CCCCCCCCCCCCCCCCCC, the activity coefficient by setting is: (373.15 K) 0.435 ± 0.033; (388.15 K) 0.436 ± 0.033; (403.15 K) 0.435 ± 0.033; (418.15 K) 0.436 ± 0.033; (433.15 K) 0.436 ± 0.033.

As for `C1CCC2CCCC2C1` (stereo not given) [1H-indene, octahydro-] + CCCCCCCCCCCCCCCCCCC(CCCCCCCCCCCCCCCCCC)CCCCC(CCCCCCCCCCCCCCCCCC)CCCCCCCCCCCCCCCCCC, the activity coefficient by setting is: (373.15 K) 0.26 ± 0.036; (388.15 K) 0.268 ± 0.036; (403.15 K) 0.269 ± 0.036; (418.15 K) 0.266 ± 0.036; (433.15 K) 0.27 ± 0.036.

With `CC(C)C(C)(C)C` [2,2,3-trimethylbutane] + CCCCCCCCCCCCCCCCCCC(CCCCCCCCCCCCCCCCCC)CCCCC(CCCCCCCCCCCCCCCCCC)CCCCCCCCCCCCCCCCCC, the activity coefficient is, setting by setting: (373.15 K) 0.34 ± 0.035; (388.15 K) 0.345 ± 0.035; (403.15 K) 0.348 ± 0.035; (418.15 K) 0.349 ± 0.035; (433.15 K) 0.355 ± 0.035.

Take `CC(C)CC(C)(C)C` [2,2,4-trimethylpentane] + CCCCCCCCCCCCCCCCCCC(CCCCCCCCCCCCCCCCCC)CCCCC(CCCCCCCCCCCCCCCCCC)CCCCCCCCCCCCCCCCCC: the activity coefficient is, setting by setting: (373.15 K) 0.397 ± 0.034; (388.15 K) 0.401 ± 0.034; (403.15 K) 0.401 ± 0.034; (418.15 K) 0.405 ± 0.034; (433.15 K) 0.406 ± 0.034.

On to `CC(C)C(C)C(C)C` [2,3,4-trimethylpentane] + CCCCCCCCCCCCCCCCCCC(CCCCCCCCCCCCCCCCCC)CCCCC(CCCCCCCCCCCCCCCCCC)CCCCCCCCCCCCCCCCCC, for which the activity coefficient was determined as 0.353 ± 0.035 (373.15 K); 0.356 ± 0.035 (388.15 K); 0.358 ± 0.035 (403.15 K); 0.36 ± 0.035 (418.15 K); 0.362 ± 0.035 (433.15 K).

Source of the values: the NIST ThermoML archive (doi:10.1016/j.fluid.2006.07.015).
